The test concerns the target Recombinant human KIF18A (1-467His-tagged) protein (Homo sapiens (Human), UniProt Q8NI77). As to the kind of experiment: KIF18A enzyme assay (microtubule-stimulated ATPase activity, ADP-Glo). Particulars: 30 nM KIF18A, ATP 75 μM, read-out: inhibitory activity against KIF18A IC50. It counts as biochemical. The gist of the method:
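Baculovirus-expressed human KIF18A (1-467, His-tagged; 30 nM) preincubated 15 min at room temperature with compound (22-point 2-fold series) in pH 7.5 Tris buffer containing 30 μg/mL pig microtubules and 1 μM paclitaxel.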
Background: In ADP-Glo the light output rises with the ADP produced.
Recombinant human KIF18A (1-467His-tagged) protein, sequence (Q8NI77 1-467): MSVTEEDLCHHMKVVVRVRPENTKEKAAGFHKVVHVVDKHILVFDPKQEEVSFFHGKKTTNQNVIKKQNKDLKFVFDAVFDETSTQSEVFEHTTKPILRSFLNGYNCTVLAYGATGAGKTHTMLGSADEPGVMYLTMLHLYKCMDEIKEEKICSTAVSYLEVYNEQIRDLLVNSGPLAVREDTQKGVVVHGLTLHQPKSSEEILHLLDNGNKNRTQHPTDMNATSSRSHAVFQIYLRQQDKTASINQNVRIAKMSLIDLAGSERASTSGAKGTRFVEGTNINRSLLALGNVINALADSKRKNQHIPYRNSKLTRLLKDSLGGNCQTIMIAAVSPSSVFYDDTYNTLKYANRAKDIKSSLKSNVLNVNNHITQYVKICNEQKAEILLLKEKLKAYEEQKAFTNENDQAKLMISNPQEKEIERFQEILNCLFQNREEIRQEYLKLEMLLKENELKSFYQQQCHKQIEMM
Recombinant human KIF18A (1-467His-tagged) protein, sequence (P02550 whole entry partner): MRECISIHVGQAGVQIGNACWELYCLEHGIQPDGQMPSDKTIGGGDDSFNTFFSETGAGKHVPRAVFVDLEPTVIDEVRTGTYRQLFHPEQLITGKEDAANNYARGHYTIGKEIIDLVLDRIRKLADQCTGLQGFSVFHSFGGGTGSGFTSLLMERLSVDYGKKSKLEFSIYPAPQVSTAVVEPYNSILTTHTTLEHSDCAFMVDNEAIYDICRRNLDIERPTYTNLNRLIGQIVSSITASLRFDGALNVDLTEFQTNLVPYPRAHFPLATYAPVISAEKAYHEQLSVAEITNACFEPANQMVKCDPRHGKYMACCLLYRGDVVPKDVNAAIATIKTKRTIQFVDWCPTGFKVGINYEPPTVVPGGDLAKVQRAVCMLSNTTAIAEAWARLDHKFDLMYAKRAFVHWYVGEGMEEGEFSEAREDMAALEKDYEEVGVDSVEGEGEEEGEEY
Recombinant human KIF18A (1-467His-tagged) protein, sequence (P02554 whole entry partner): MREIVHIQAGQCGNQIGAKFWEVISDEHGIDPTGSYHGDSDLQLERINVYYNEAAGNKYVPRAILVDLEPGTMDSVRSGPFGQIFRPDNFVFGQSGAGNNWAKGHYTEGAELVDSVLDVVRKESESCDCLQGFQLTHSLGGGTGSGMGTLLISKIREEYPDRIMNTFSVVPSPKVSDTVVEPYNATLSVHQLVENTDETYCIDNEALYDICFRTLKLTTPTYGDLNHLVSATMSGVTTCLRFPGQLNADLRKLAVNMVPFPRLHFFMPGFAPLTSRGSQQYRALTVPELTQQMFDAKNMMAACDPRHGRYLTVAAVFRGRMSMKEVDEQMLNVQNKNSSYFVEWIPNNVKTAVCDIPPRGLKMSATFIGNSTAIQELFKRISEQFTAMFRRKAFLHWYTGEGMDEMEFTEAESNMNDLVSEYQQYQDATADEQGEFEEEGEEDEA
The IC50 is the point on the concentration scale where inhibition reaches its midpoint. Take `Cn1ccc2cc(C(=O)Nc3ccc(NS(=O)(=O)CCO)cc3N3CCC4(CC3)CC4)nc(N3CC(F)(F)C3)c21` [Compound 484]: the IC50 is at most 100 nM. `Cn1ccc2cc(NC(=O)c3ccc(NS(=O)(=O)CCO)cc3N3CCC4(CC3)CC4)nc(N3CCOCC3)c21` [Compound 460]: the IC50 was at most 100 nM. Then `CC1(F)CCN(c2cc(NC(=O)c3ccc(NS(=O)(=O)CCO)cc3N3CCC4(CC3)CC4)cc3ccoc23)C1` (centres unmarked) [Compound 136], with at most 100 nM.

Turning to `O=C(Nc1cc2ccoc2c(N2CC3CC3C2)n1)c1ccc(NS(=O)(=O)CCO)cc1N1CCC2(CC1)CC2` (centres unmarked) [Compound 202], the IC50 was at most 100 nM. As for `CN1CCc2cc(NC(=O)c3ccc(S(=O)(=O)NCCO)cc3N3CCC4(CC3)CC4)nc(N3CC4CC4C3)c21` (centres unmarked) [Compound 346], the figure is at most 100 nM. Then `CC(C)(CO)Nc1cc(NC(=O)c2ccc(NS(=O)(=O)CCO)cc2N2CCC3(CC2)CC3)cc2c1OCC2` [Compound 11], with at most 100 nM; and `C[C@@H]1CN(c2cc(NC(=O)c3ccc(S(=O)(=O)NCCO)cc3N3CCC4(CC3)CC4)cc3ccoc23)CCO1` [Compound 146], with at most 100 nM; and `CC(C)(CO)Nc1nc(C(=O)Nc2ccc(S(=O)(=O)NCCO)cc2N2CCC3(CC2)CC3)cc2c1OCC2` [Compound 123], with at most 100 nM. As for `CC(C)(CO)Nc1cc(C(=O)Nc2ccc(S(=O)(=O)NCCO)cc2N2CCC3(CC2)CC3)cc2c1OCC2` [Compound 59], the figure is at most 100 nM; as for `O=C(Nc1cc2c(c(N3CCC(F)CC3)c1)OCC2)c1ccc(S(=O)(=O)NCCO)cc1N1CCC2(CC1)CC2` [Compound 25], at most 100 nM; as for `O=C(Nc1cc(OCCC(F)(F)F)c2occc2c1)c1ccc(NS(=O)(=O)CCO)cc1N1CCC2(CC1)CC2` [Compound 133], at most 100 nM. Take `C[C@H]1CN(c2nc(C(=O)Nc3ccc(NS(=O)(=O)CCO)cc3N3CCC4(CC3)CC4)cc3c2N(C)CC3)CCO1` [Compound 355]: the IC50 was at most 100 nM. In the case of `O=C(Nc1cn2ccnc2c(N2CCC(F)(F)CC2)n1)c1ccc(NS(=O)(=O)CCO)cc1N1CCC2(CC1)CC2` [Compound 536], the IC50 was at most 100 nM. Turning to `C[C@H](CO)NS(=O)(=O)c1ccc(C(=O)Nc2cc(N3CCC(F)(F)CC3)c3c(ccn3C)c2)c(N2CCC3(CC2)CC3)c1` [Compound 414], the IC50 is at most 100 nM. Consider `C[C@@H]1CN(c2nc(C(=O)Nc3ccc(NS(=O)(=O)[C@@H](C)CO)cc3N3CCC4(CC3)CC4)cc3c2N(C)CC3)CCO1` [Compound 367], for which the IC50 is at most 100 nM.

Turning to `CC1(F)CCN(c2nc(C(=O)Nc3ccc(NS(=O)(=O)CCO)cc3N3CCC4(CC3)CC4)cc3c2OCC3)C1` (centres unmarked) [Compound 104], the IC50 was at most 100 nM. With `C[C@H](CO)S(=O)(=O)Nc1ccc(NC(=O)c2cc3ccn(C)c3c(N3CCC(F)(F)CC3)n2)c(N2CCC3(CC2)CC3)c1` [Compound 494], the IC50 is at most 100 nM. Then `C[C@@H]1CN(c2cc(NC(=O)c3ccc(NS(=O)(=O)[C@@H](C)CO)cc3N3CCC4(CC3)CC4)cc3c2N(C)CC3)CCO1` [Compound 271], with at most 100 nM; and `CN1CCc2cc(NC(=O)c3ccc(NS(=O)(=O)CCO)cc3N3CCC4(CC3)CC4)nc(N3CCC(F)(F)CC3)c21` [Compound 321], with at most 100 nM; and `O=C(Nc1ccc(NS(=O)(=O)CCO)cc1N1CCC2(CC1)CC2)c1cc2ccoc2c(N2CCC3(CC3)C2)n1` [Compound 230], with at most 100 nM.

Regarding `Cn1ccc2cc(C(=O)Nc3ccc(NS(=O)(=O)CCO)cc3N3CCC4(CC3)CC4)cc(NC(C)(C)CO)c21` [Compound 427], the 50% inhibitory concentration (IC50) was at most 100 nM. For the compound `C[C@@H]1CN(c2nc(C(=O)Nc3ccc(S(=O)(=O)N[C@@H](C)CO)cc3N3CCC4(CC3)CC4)cc3ccoc23)CCO1` [Compound 255], the IC50 was at most 100 nM. In the case of `C[C@@H]1CN(c2cc(C(=O)Nc3ccc(NS(=O)(=O)CCO)cc3N3CCC4(CC3)CC4)cc3c2N(C)CC3)CCO1` [Compound 290], the 50% inhibitory concentration (IC50) is at most 100 nM.

(Values after US20250197382A1, “KIF18A INHIBITOR” (WIGEN BIOMEDICINE TECHNOLOGY (SHANGHAI) CO., LTD., priority 2022, published 2025).)
